Experiment in all cases: HTRF cAMP assay in HEK293T
Holding throughout (format): cell-based

For assay [1], the target named is T1, Olfr739 (Mus musculus, UniProt E9Q1P0).
T1 sequence (E9Q1P0 1-309): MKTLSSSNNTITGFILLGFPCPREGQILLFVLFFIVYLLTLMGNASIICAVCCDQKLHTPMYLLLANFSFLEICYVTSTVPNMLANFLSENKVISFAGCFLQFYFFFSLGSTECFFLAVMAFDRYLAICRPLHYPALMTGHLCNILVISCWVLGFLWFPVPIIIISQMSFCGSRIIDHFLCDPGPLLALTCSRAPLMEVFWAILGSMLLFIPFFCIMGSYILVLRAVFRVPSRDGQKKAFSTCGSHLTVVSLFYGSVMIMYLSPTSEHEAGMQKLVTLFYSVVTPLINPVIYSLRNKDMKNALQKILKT
The note with it: partial agonist; range printed for four receptors together.

The target in a further assay is T2, Olfr743 (Mus musculus, UniProt L7N1Y2).
T2 sequence (L7N1Y2 1-311): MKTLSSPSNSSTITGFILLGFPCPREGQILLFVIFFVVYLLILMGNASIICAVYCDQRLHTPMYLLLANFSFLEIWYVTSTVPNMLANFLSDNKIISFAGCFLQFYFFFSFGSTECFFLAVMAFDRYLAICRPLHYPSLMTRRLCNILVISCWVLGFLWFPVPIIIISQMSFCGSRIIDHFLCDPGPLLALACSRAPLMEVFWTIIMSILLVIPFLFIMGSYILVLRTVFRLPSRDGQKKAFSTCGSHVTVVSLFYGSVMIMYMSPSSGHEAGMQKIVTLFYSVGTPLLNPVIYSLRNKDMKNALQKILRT

Assay [2] concerns the target T1, Olfr739.
The target of the next assay is T3, Olfr748 (Mus musculus, UniProt E9Q9Z0).
T3 sequence (E9Q9Z0 1-307): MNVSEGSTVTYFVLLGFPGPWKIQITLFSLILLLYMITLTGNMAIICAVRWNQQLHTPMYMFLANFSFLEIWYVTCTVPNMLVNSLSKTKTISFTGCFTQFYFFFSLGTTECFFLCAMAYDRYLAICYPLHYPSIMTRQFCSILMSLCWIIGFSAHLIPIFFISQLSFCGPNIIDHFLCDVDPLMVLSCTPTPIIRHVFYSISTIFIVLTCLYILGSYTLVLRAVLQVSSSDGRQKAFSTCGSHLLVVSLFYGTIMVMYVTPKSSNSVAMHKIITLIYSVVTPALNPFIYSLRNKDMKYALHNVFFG

`COc1ccc2ccccc2c1` [compound 35, 2-methoxynaphthalene]: the “% of the maximum indole response” value on Olfr739 [1] is 71-75%.
`c1ccc2[nH]ccc2c1` [compound 37, indole]: the figures for the EC50 at Olfr743, at Olfr739 [2] and on Olfr748 were 0.08 µM, 32 µM and 81 µM, respectively.

The values above are taken from paper doi:10.1101/760033v2 (biorxiv, 2019).
